In brackets after ≈: the same amount, converted by molar mass.
Key:
[1] = Cytotoxicity in tissue culture (HeLa monolayers); assay type: cell-based; conditions: human; HeLa cells; observed at 48 and 72 hours post-treatment; read-out: Cytotoxicity (concentration of the compound found to be toxic to the cell)
[2] = tested on: rhinovirus type 1A (RV-1A); experiment: Tissue culture antiviral testing, RV-1A (cytopathic effect, HeLa cells); assay type: cell-based; conditions: Enterovirus, HeLa cells, NA = not active at the standard test conditions, read-out: Lowest concentration of the compound necessary to cause a 50 percent reduction in cytopathic effect
rhinovirus type 2 (RV-2) = experiment: Tissue culture antiviral testing, RV-2 (cytopathic effect, HeLa cells); assay type: cell-based; conditions: Enterovirus, HeLa cells, NA = not active at the standard test conditions, read-out: Lowest concentration of the compound necessary to cause a 50 percent reduction in cytopathic effect
[3] = tested on: Coxsackie A21 virus (Cox A21); experiment: Tissue culture antiviral testing, Cox A21 (cytopathic effect, HeLa cells); assay type: cell-based; conditions: HeLa cells, NA = not active at the standard test conditions, read-out: Lowest concentration of the compound necessary to cause a 50 percent reduction in cytopathic effect
rhinovirus type 5 (RV-5) = experiment: Tissue culture antiviral testing, RV-5 (cytopathic effect, HeLa cells); assay type: cell-based; conditions: Enterovirus, HeLa cells, read-out: Lowest concentration of the compound necessary to cause a 50 percent reduction in cytopathic effect
rhinovirus type 8 (RV-8) = experiment: Tissue culture antiviral testing, RV-8 (cytopathic effect, HeLa cells); assay type: cell-based; conditions: Enterovirus, HeLa cells, read-out: Lowest concentration of the compound necessary to cause a 50 percent reduction in cytopathic effect
[4] = tested on: rhinovirus type 64 (RV-64); experiment: Tissue culture antiviral testing, RV-64 (cytopathic effect, HeLa cells); assay type: cell-based; conditions: Enterovirus, HeLa cells, NA = not active at the standard test conditions, read-out: Lowest concentration of the compound necessary to cause a 50 percent reduction in cytopathic effect
Cox A21 = experiment: Single Oral Dose test in mice challenged with Cox A21; assay type: in vivo, Swiss male mice
Coxsackie A21 virus = experiment: Continuous Oral Feeding test in mice challenged with Coxsackie A21; assay type: in vivo
[5] = tested on: Hank's (untyped) rhinovirus; experiment: Inhibition of multiplication, WI-38 cell culture tubes; assay type: cell-based; conditions: Enterovirus, 25 μg/ml, read-out: inhibition grade
rhinovirus type 4 = experiment: as above; assay type: cell-based; conditions: Enterovirus, 25 μg/ml, read-out: inhibition grade
rhinovirus type 6 = experiment: as above; assay type: cell-based; conditions: Enterovirus, 25 μg/ml, read-out: inhibition grade
rhinovirus type 8 = experiment: as above; assay type: cell-based; conditions: Enterovirus, 25 μg/ml, read-out: inhibition grade
rhinovirus type 10 = experiment: as above; assay type: cell-based; conditions: Enterovirus, 25 μg/ml, read-out: inhibition grade
rhinovirus type 13 = experiment: as above; assay type: cell-based; conditions: Enterovirus, 25 μg/ml, read-out: inhibition grade
rhinovirus type 17 = experiment: as above; assay type: cell-based; conditions: Enterovirus, 25 μg/ml, read-out: inhibition grade
rhinovirus type 19 = experiment: as above; assay type: cell-based; conditions: Enterovirus, 25 μg/ml, read-out: inhibition grade
rhinovirus type 21 = experiment: as above; assay type: cell-based; conditions: Enterovirus, 25 μg/ml, read-out: inhibition grade
rhinovirus type 29 = experiment: as above; assay type: cell-based; conditions: Enterovirus, 25 μg/ml, read-out: inhibition grade
rhinovirus type 39 = experiment: as above; assay type: cell-based; conditions: Enterovirus, 25 μg/ml, read-out: inhibition grade
rhinovirus type 56 = experiment: as above; assay type: cell-based; conditions: Enterovirus, 25 μg/ml, read-out: inhibition grade
rhinovirus type 58 = experiment: as above; assay type: cell-based; conditions: Enterovirus, 25 μg/ml, read-out: inhibition grade
rhinovirus type 59 = experiment: as above; assay type: cell-based; conditions: Enterovirus, 25 μg/ml, read-out: inhibition grade
rhinovirus type 60 = experiment: as above; assay type: cell-based; conditions: Enterovirus, 25 μg/ml, read-out: inhibition grade
rhinovirus type 64 = experiment: as above; assay type: cell-based; conditions: Enterovirus, 25 μg/ml, read-out: inhibition grade
rhinovirus type 68 = experiment: as above; assay type: cell-based; conditions: Enterovirus, 25 μg/ml, read-out: inhibition grade
rhinovirus type 74 = experiment: as above; assay type: cell-based; conditions: Enterovirus, 25 μg/ml, read-out: inhibition grade
rhinovirus type 75 = experiment: as above; assay type: cell-based; conditions: Enterovirus, 25 μg/ml, read-out: inhibition grade
rhinovirus type 81 = experiment: as above; assay type: cell-based; conditions: Enterovirus, 25 μg/ml, read-out: inhibition grade
Coxsackie B2 = assay type: cell-based; conditions: enterovirus Coxsackie B2
Coxsackie B4 = assay type: cell-based; conditions: enterovirus Coxsackie B4
influenza A = assay type: cell-based; conditions: at the test concentrations
influenza WSN = experiment: Further tissue culture testing; assay type: cell-based; conditions: at the test concentrations
influenze PR 8 = assay type: cell-based; conditions: at the test concentrations
parainfluenza 1 = assay type: cell-based; conditions: at the test concentrations
[6] = tested on: parainfluenza NDV (Newcastle's disease virus); assay type: cell-based; conditions: at the test concentrations
adenovirus (untyped) = assay type: cell-based; conditions: at the test concentrations
[7] = tested on: Herpes simplex virus type 1; assay type: cell-based; conditions: at the test concentrations
[8] = tested on: feline calici virus, unconfirmed; assay type: cell-based; conditions: at the test concentrations
Acute toxicity in rats = conditions: rat, in vivo
[9] = Acute oral toxicity in beagle dogs; conditions: dog, in vivo
Source text: Testing in beagle dogs indicated an acute oral toxicity of greater than 2 grams/kg.

Picornaviruses = experiment: Antiviral activity against picornaviruses, overall (tissue culture and animal testing)
Procedure: Monolayered HeLa cells in 16 millimeter (mm) tissue culture dishes were treated with 1 ml of culture medium (Eagles medium supplemented with fetal calf serum) containing subject compound at an appropriate concentration or containing no compound at all. Culture mediums such as those described herein are more fully described in standard texts, as for example, Kuchler's Biochemical Methods in Cell Culture and Virology, Dowden, Hutchinson and Ross, Inc., Stroudsberg, Pa. (1977). Following treatment, cells were challenged with 0.05 ml of rhinovirus type 1A (RV-1A), rhinovirus type 2 (RV-2) or Coxsackie A21 virus (Cox A21) in culture medium. Some of the compounds were also tested against rhinovirus type 5 (RV-5), rhinovirus type 8 (RV-8) or rhinovirus type 64 (RV-64). Cell controls received no viruses.
In addition, some of the compounds were tested in animals utilizing the following procedure, hereinafter referred to as the "Single Oral Dose" test. […] Mice were observed daily for 7-10 days post-challenge and deaths recorded. […]
Some of the compounds were also tested in animals utilizing the following procedure, hereinafter referred to as the "Continuous Oral Feeding" test. […] Deaths in both control and experimental groups were recorded for the 10 days and the results analyzed by a chi-square test. […]

Which MCC [1] does the source give for `N#Cc1cc([N+](=O)[O-])ccc1Oc1ccc(Cl)c(Cl)c1` [Example 1, 2-(3,4-Dichlorophenoxy)-5-nitrobenzonitrile] here?
The MCC was over 100 µg/mL.

And the EC50 [2]?
Its EC50 is 0.5 µg/mL (≈ 1.62 µM).

And the EC50 (rhinovirus type 2 (RV-2))?
The EC50 was 0.25 µg/mL (≈ 0.809 µM).

What about the EC50 [3] of the same compound?
Its EC50 is 0.25 µg/mL (≈ 0.809 µM).

What about the EC50 (rhinovirus type 5 (RV-5)) of the same compound?
Its EC50 is 0.5 µg/mL (≈ 1.62 µM).

What about the EC50 (rhinovirus type 8 (RV-8)) of the same compound?
The EC50 was 0.25 µg/mL (≈ 0.809 µM).

And the EC50 [4]?
Its EC50 is 0.156 µg/mL (≈ 0.505 µM).

And the “antiviral activity in the "Single Oral Dose" test” value (Cox A21; in words, 95% confidence level)?
The value was “exhibited antiviral activity”.

And the “X^2 (Single Oral Dose, chi-square of deaths vs virus control)” value (Cox A21; po, 600 mg/kg, 3 h)?
Its value is 5.36.

What about the “antiviral activity in the "Continuous Oral Feeding" test” value (Coxsackie A21 virus; in words, 95% confidence level) of the same compound?
Its value is “exhibited antiviral activity”.

And the “X^2 (Continuous Oral Feeding, chi-square of deaths)” value (Coxsackie A21 virus; po, 0.06 % in diet, 240 h, 0.06 % strength)?
Its value is 23.62.

And the inhibition at 25 µg/mL [5]?
The inhibition at 25 µg/mL was at least 75%.

And the inhibition at 25 µg/mL (rhinovirus type 4)?
The inhibition at 25 µg/mL was at least 75%.

What about the inhibition at 25 µg/mL (rhinovirus type 6) of the same compound?
Its inhibition at 25 µg/mL is at least 75%.

What about the inhibition at 25 µg/mL (rhinovirus type 8) of the same compound?
Its inhibition at 25 µg/mL is at least 75%.

And the inhibition at 25 µg/mL (rhinovirus type 10)?
Its inhibition at 25 µg/mL is at least 75%.

What about the inhibition at 25 µg/mL (rhinovirus type 13) of the same compound?
The inhibition at 25 µg/mL was at least 75%.

What about the inhibition at 25 µg/mL (rhinovirus type 17) of the same compound?
The inhibition at 25 µg/mL was at least 75%.

What about the inhibition at 25 µg/mL (rhinovirus type 19) of the same compound?
The inhibition at 25 µg/mL was at least 75%.

What about the inhibition at 25 µg/mL (rhinovirus type 21) of the same compound?
Its inhibition at 25 µg/mL is at least 75%.

What about the inhibition at 25 µg/mL (rhinovirus type 29) of the same compound?
Its inhibition at 25 µg/mL is at least 75%.

What about the inhibition at 25 µg/mL (rhinovirus type 39) of the same compound?
Its inhibition at 25 µg/mL is at least 75%.

And the inhibition at 25 µg/mL (rhinovirus type 56)?
Its inhibition at 25 µg/mL is at least 75%.

And the inhibition at 25 µg/mL (rhinovirus type 58)?
The inhibition at 25 µg/mL was at least 75%.

What about the inhibition at 25 µg/mL (rhinovirus type 59) of the same compound?
Its inhibition at 25 µg/mL is at least 75%.

What about the inhibition at 25 µg/mL (rhinovirus type 60) of the same compound?
Its inhibition at 25 µg/mL is at least 75%.

What about the inhibition at 25 µg/mL (rhinovirus type 64) of the same compound?
Its inhibition at 25 µg/mL is at least 75%.

And the inhibition at 25 µg/mL (rhinovirus type 68)?
The inhibition at 25 µg/mL was at least 75%.

What about the inhibition at 25 µg/mL (rhinovirus type 74) of the same compound?
The inhibition at 25 µg/mL was at least 75%.

And the inhibition at 25 µg/mL (rhinovirus type 75)?
The inhibition at 25 µg/mL was at least 75%.

And the inhibition at 25 µg/mL (rhinovirus type 81)?
The inhibition at 25 µg/mL was at least 75%.

And the inhibitory activity (Coxsackie B2)?
The inhibitory activity was “displayed inhibitory activity”.

What about the inhibitory activity (Coxsackie B4) of the same compound?
The inhibitory activity was “displayed inhibitory activity”.

And the “effect on virus multiplication” value (influenza A)?
The value was “did not affect the multiplication”.

And the “effect on virus multiplication” value (influenza WSN)?
Its value is “did not affect the multiplication”.

And the “effect on virus multiplication” value (influenze PR 8)?
Its value is “did not affect the multiplication”.

What about the “effect on virus multiplication” value (parainfluenza 1) of the same compound?
Its value is “did not affect the multiplication”.

And the “effect on virus multiplication” value [6]?
The value was “did not affect the multiplication”.

And the “effect on virus multiplication” value (adenovirus (untyped))?
The value was “did not affect the multiplication”.

And the “effect on virus multiplication” value [7]?
The value was “did not affect the multiplication”.

And the “effect on virus multiplication” value [8]?
The value was “did not affect the multiplication”.

What about the LD50 (Acute toxicity in rats; ip, intraperitoneal, read-out: acute toxicity, intraperitoneal administration) of the same compound?
Its LD50 is over 2000 mg/kg.

And the LD50 (Acute toxicity in rats; oral, read-out: acute oral toxicity)?
The LD50 was about 5000 mg/kg.

What about the LD50 [9] of the same compound?
The LD50 was over 2000 mg/kg.

And the effectiveness against picornaviruses (Picornaviruses; general statement)?
Its effectiveness against picornaviruses is “particularly effective against Picornaviruses”.

And the “antiviral activity compared with 5-(3,4-dichlorophenoxy)-2-nitrobenzonitrile” value (Picornaviruses; standard tissue culture and animal testing)?
The value was “markedly greater antiviral activity”.
